pIC50, pKi: −log10 of the molar value.
Legend:
[1] = biological target: T1, Muscarinic acetylcholine receptor M2 (Homo sapiens, UniProt P08172); format: cell membranes, CHO-K1, Membrane; conditions: for IC50 / Ki: cho-k1
T1 sequence (P08172 whole entry): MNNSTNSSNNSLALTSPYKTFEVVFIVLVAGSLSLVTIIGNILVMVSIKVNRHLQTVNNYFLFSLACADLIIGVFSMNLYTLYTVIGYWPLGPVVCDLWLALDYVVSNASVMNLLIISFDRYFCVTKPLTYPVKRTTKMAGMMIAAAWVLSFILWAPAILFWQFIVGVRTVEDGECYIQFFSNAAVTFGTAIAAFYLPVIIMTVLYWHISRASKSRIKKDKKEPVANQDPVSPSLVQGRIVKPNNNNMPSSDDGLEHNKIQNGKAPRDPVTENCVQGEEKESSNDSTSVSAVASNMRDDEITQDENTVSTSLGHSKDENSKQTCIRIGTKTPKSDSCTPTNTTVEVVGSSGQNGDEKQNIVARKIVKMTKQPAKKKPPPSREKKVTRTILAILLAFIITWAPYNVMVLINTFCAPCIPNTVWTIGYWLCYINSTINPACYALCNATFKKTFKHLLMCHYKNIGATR

[2] = biological target: T2, Cytochrome P450 2A6 (Homo sapiens, UniProt P11509); conditions: bti-tn-5b1-4
T2 sequence (P11509 whole entry): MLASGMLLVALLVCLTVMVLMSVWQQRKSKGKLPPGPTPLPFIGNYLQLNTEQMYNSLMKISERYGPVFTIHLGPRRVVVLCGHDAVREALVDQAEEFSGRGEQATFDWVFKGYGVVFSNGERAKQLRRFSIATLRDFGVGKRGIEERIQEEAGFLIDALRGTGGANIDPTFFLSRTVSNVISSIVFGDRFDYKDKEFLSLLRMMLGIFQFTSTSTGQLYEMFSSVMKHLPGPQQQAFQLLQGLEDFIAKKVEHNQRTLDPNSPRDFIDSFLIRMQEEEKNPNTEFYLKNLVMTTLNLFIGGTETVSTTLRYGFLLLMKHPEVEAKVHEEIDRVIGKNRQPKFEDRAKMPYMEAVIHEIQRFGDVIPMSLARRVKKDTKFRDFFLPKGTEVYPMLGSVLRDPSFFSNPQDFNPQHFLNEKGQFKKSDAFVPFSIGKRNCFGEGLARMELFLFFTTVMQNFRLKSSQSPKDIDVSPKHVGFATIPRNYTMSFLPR

[3] = biological target: T3, Androgen receptor (Rattus norvegicus, UniProt P15207)
T3 sequence (P15207 whole entry): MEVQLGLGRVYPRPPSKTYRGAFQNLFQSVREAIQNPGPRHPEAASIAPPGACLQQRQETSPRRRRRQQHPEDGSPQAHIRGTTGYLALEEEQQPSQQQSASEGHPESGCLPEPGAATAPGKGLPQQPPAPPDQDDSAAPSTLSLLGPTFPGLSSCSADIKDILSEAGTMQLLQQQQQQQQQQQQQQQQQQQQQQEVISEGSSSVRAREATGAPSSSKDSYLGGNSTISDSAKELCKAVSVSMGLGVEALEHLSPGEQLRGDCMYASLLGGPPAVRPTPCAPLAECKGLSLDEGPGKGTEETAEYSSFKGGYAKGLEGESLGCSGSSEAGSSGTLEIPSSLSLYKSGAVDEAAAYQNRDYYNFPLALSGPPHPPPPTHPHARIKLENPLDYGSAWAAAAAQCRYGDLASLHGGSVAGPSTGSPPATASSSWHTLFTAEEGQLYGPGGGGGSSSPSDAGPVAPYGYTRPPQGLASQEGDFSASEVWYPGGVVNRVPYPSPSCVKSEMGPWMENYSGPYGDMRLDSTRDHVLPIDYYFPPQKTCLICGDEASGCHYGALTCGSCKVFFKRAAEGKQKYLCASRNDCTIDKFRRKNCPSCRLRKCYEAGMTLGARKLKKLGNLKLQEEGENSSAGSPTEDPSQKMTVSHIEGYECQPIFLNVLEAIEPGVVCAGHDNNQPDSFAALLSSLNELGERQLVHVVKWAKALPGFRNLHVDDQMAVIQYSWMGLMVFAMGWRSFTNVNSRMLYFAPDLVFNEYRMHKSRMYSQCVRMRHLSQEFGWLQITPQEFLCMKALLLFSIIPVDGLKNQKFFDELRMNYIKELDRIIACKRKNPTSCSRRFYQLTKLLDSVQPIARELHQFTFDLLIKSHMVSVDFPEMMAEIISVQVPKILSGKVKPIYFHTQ

[4] = biological target: T3, Androgen receptor; remark: listed apart in the source
[5] = biological target: Cytochrome P450 2C9 (Homo sapiens, UniProt P11712)
[6] = biological target: T4, Glucocorticoid receptor (Homo sapiens, UniProt P04150); experiment: biochemical
T4 sequence (P04150 whole entry): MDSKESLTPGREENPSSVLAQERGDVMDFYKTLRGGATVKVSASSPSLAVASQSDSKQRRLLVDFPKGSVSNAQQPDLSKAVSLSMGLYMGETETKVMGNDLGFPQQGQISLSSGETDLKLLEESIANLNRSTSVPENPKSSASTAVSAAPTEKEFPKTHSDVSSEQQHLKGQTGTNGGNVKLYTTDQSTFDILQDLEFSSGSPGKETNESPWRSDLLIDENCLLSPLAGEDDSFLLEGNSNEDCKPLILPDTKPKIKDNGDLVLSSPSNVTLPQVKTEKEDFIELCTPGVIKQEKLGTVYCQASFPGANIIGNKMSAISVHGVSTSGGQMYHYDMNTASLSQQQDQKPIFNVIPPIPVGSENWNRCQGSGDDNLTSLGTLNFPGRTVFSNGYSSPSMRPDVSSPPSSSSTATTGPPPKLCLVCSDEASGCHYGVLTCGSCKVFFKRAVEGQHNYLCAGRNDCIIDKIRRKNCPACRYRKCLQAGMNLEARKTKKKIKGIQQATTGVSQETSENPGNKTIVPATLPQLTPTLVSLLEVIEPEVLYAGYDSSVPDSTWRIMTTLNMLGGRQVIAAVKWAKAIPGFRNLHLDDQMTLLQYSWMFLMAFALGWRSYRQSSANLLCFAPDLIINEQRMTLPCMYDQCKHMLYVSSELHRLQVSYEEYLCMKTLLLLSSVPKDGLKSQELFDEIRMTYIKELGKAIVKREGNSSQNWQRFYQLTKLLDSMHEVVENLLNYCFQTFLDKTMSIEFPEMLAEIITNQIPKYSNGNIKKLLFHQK
Further: in other assays of this panel Not Active means under 50% inhibition at 10 µM.

Chain of Cytochrome P450 2C9 (P11712 whole entry): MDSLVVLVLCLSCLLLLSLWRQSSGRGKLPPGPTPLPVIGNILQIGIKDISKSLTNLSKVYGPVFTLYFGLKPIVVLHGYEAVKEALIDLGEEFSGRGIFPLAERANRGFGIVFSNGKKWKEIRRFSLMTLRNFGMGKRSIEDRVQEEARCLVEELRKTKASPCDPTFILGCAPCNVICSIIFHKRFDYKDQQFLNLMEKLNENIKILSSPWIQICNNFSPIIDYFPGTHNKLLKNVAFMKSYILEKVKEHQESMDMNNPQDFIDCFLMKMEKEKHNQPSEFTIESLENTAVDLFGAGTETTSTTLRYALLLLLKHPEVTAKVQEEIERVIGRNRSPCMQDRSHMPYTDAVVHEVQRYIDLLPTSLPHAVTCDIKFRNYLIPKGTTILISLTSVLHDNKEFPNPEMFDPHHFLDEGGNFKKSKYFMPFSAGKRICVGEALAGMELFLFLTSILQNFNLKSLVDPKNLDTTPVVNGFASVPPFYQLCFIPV

## CCOc1nc2cccc(C(=O)O)c2n1Cc1ccc(-c2ccccc2-c2nnn[nH]2)cc1
[1]
  IC50: Not Active
[2]
  IC50: Not Active
  Ki: Not Active
[3]
  IC50: Not Active

## O=C(O)CCCc1cccs1
[1]
  IC50: Not Active
[2]
  IC50: Not Active
  Ki: Not Active
[3]
  IC50: Not Active

## Cc1c(O)cccc1C(=O)N[C@@H](CSc1ccccc1)[C@H](O)CN1C[C@H]2CCCC[C@H]2C[C@H]1C(=O)NC(C)(C)C
[1]
  IC50: Not Active
[2]
  IC50: Not Active
  Ki: Not Active
[4]
  pIC50: 4.44
  pKi: 4.62

## NC(=O)c1cccc(N)c1 [3-AMINOBENZAMIDE]
[1]
  IC50: Not Active
[2]
  IC50: Not Active
  Ki: Not Active
[3]
  IC50: Not Active

## CC(=O)Oc1ccccc1C(=O)O [ASPIRIN]
[1]
  IC50: Not Active
[2]
  IC50: Not Active
  Ki: Not Active
[3]
  IC50: Not Active

## CC(=O)OC[C@H]1O[C@@H](n2ncc(=O)[nH]c2=O)[C@H](OC(C)=O)[C@@H]1OC(C)=O [AZARIBINE]
[1]
  IC50: Not Active
[2]
  IC50: Not Active
  Ki: Not Active
[3]
  IC50: Not Active

## COc1cc(OC)c(C(=O)CCCN2CCCC2)c(OC)c1 [BUFLOMEDIL]
[1]
  IC50: Not Active
[2]
  IC50: Not Active
  Ki: Not Active
[3]
  IC50: Not Active

## CNC1=Nc2ccc(Cl)cc2C(c2ccccc2)=[N+]([O-])C1 [CHLORDIAZEPOXIDE]
[1]
  IC50: Not Active
[2]
  IC50: Not Active
  Ki: Not Active
[3]
  IC50: Not Active

## CC(C)NCC(O)c1ccccc1Cl (centres undefined) [CLORPRENALINE]
[1]
  IC50: Not Active
[2]
  IC50: Not Active
  Ki: Not Active
[3]
  IC50: Not Active

## CC(C)C[C@H]1C(=O)N2CCC[C@H]2[C@]2(O)O[C@](NC(=O)[C@@H]3C=C4c5cccc6[nH]cc(c56)C[C@H]4N(C)C3)(C(C)C)C(=O)N12 [ERGOCRYPTINE]
[1]
  IC50: Not Active
[2]
  IC50: Not Active
  Ki: Not Active
[3]
  IC50: Not Active
[5]
  pIC50: 5.22

## C[C@]12CC[C@@H]3c4ccc(O)cc4CC[C@H]3[C@@H]1C[C@@H](O)[C@@H]2O [ESTRIOL]
[1]
  IC50: Not Active
[2]
  IC50: Not Active
  Ki: Not Active
[6]
  pIC50: 4.41
  pKi: 4.75

## C#C[C@]1(O)CC[C@H]2[C@@H]3CCC4=CC(=O)CC[C@]4(C)[C@H]3CC[C@@]21C [ETHISTERONE]
[1]
  IC50: Not Active
[2]
  IC50: Not Active
  Ki: Not Active
[6]
  pIC50: 6.68
  pKi: 7.02

## COC(=O)Nc1nc2cc(C(=O)c3ccc(F)cc3)ccc2[nH]1 [FLUBENDAZOLE]
[1]
  IC50: Not Active
[2]
  IC50: Not Active
  Ki: Not Active
[3]
  IC50: Not Active

## CC(=O)OCC(=O)[C@@]1(O)CC[C@H]2[C@@H]3CCC4=CC(=O)CC[C@]4(C)[C@@]3(F)[C@@H](O)C[C@@]21C [FLUDROCORTISONE ACETATE]
[1]
  IC50: Not Active
[2]
  IC50: Not Active
  Ki: Not Active
[3]
  IC50: Not Active

## CCOC(=O)c1ncn2c1CN(C)C(=O)c1cc(F)ccc1-2 [FLUMAZENIL]
[1]
  IC50: Not Active
[2]
  IC50: Not Active
  Ki: Not Active
[3]
  IC50: Not Active

## CC(=O)OCC(=O)[C@@]12OC(C)(C)O[C@@H]1C[C@H]1[C@@H]3C[C@H](F)C4=CC(=O)C=C[C@]4(C)[C@@]3(F)[C@@H](O)C[C@@]12C [FLUOCINONIDE]
[1]
  IC50: Not Active
[6]
  pIC50: 8.28
  pKi: 8.62

## Cc1ccc(C)c(OCCCC(C)(C)C(=O)O)c1 [GEMFIBROZIL]
[1]
  IC50: Not Active
[2]
  IC50: Not Active
  Ki: Not Active
[3]
  IC50: Not Active

## O=c1c(-c2ccc(O)cc2)coc2cc(O)cc(O)c12 [GENISTEIN]
[1]
  IC50: Not Active
[2]
  IC50: Not Active
  Ki: Not Active
[3]
  IC50: Not Active

## CCC1=C(C)CN(C(=O)NCCc2ccc(S(=O)(=O)NC(=O)N[C@H]3CC[C@H](C)CC3)cc2)C1=O [GLIMEPIRIDE]
[1]
  IC50: Not Active
[2]
  IC50: Not Active
  Ki: Not Active
[3]
  IC50: Not Active

## Nc1cc(-c2ccncc2)c[nH]c1=O [INAMRINONE]
[1]
  IC50: Not Active
[2]
  IC50: Not Active
  Ki: Not Active
[3]
  IC50: Not Active

## N[C@@H](Cn1ccc(=O)c(O)c1)C(=O)O [L-MIMOSINE]
[1]
  IC50: Not Active
[3]
  IC50: Not Active

## CN1C(=O)CN=C(c2ccccc2)c2cc([N+](=O)[O-])ccc21 [NIMETAZEPAM]
[1]
  IC50: Not Active
[2]
  IC50: Not Active
  Ki: Not Active
[3]
  IC50: Not Active

## C[C@@H]1O[C@@H](O[C@H]2C[C@@H](O)[C@]3(CO)[C@H]4[C@H](O)C[C@]5(C)[C@@H](C6=CC(=O)OC6)CC[C@]5(O)[C@@H]4CC[C@]3(O)C2)[C@H](O)[C@H](O)[C@H]1O [OUABAIN]
[1]
  IC50: Not Active
[2]
  IC50: Not Active
  Ki: Not Active
[3]
  IC50: Not Active

## CCN(CC)CCCC(C)Nc1c2ccc(Cl)cc2nc2ccc(OC)cc12 (centres undefined) [QUINACRINE]
[1]; read-out: IC50
  pIC50: 6.02
[1]; read-out: Ki
  pKi: 6.46
[2]
  IC50: Not Active
  Ki: Not Active
[3]
  IC50: Not Active

## C[C@]12C=CC(=O)C=C1CC[C@H]1[C@@H]3C[C@@H](O)[C@](O)(C(=O)CO)[C@@]3(C)C[C@H](O)[C@@]12F [TRIAMCINOLONE]
[1]
  IC50: Not Active
[2]
  IC50: Not Active
  Ki: Not Active
[6]
  pIC50: 7.24
  pKi: 7.59

## CC[C@]1(O)C[C@@H]2CN(CCc3c([nH]c4ccccc34)[C@@](C(=O)OC)(c3cc4c(cc3OC)N(C)[C@H]3[C@@](O)(C(N)=O)[C@H](O)[C@]5(CC)C=CCN6CC[C@]43[C@@H]65)C2)C1 [VINDESINE]
[1]
  IC50: Not Active
[2]
  IC50: Not Active
  Ki: Not Active
[3]
  IC50: Not Active

## COBALTOUS CHLORIDE
[1]
  IC50: Not Active
  Ki: Not Active
[2]
  IC50: Not Active
  Ki: Not Active
[3]
  IC50: Not Active
  Ki: Not Active

## COLISTIN
[1]
  IC50: Not Active
  Ki: Not Active
[2]
  IC50: Not Active
  Ki: Not Active
[3]
  IC50: Not Active
  Ki: Not Active
